This passage reports GI50 and TGI results from PubChem BioAssay (NCI).

Where “and” joins values, the source holds several entries; their conditions need not be identical. Identical values can stand only once.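 Where inhibition never reached the appropriate level, the endpoint shown equals the highest concentration tested. Otherwise, values were interpolated linearly from a five-concentration, 48-hour dose response in 96-well plates. Abbreviation: GI50, concentration required for 50% inhibition of growth. TGI is the concentration that stops growth completely.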

Some test systems named below: 786-0 renal; SNB-75 CNS; MALME-3M melanoma; A498 renal; RXF 393 renal; MCF7 breast; KM12 colon; UACC-62 melanoma; HCC-2998 colon; SK-MEL-28 melanoma.
Common to all, as to test: NCI-60 cell line screen, 48 h

As to `Nc1nccc(-c2c(-c3ccc(F)cc3)nn3cc(C(F)(F)F)ccc23)n1`, the GI50 in the assay with 786-0 renal is greater than 25 µM; with SNB-75 CNS, greater than 19.7 µM; in the assay on MALME-3M melanoma it was greater than 25 µM; with A498 renal it was greater than 25 µM; in the assay on RXF 393 renal, greater than 25 µM; in the assay on MCF7 breast it was greater than 25 µM. Moreover, the GI50 in the assay on KM12 colon, in the assay with UACC-62 melanoma, in the assay with HCC-2998 colon and in the assay on SK-MEL-28 melanoma was greater than 25 µM each time. Moreover, the TGI in the assay with 786-0 renal, in the assay on SNB-75 CNS, in the assay with MALME-3M melanoma, with A498 renal, in the assay with RXF 393 renal and in the assay with MCF7 breast was greater than 25 µM in each case. The TGI with KM12 colon, in the assay on UACC-62 melanoma, with HCC-2998 colon and in the assay with SK-MEL-28 melanoma was greater than 25 µM throughout.

Turning to `CC(=O)O[C@H]1CC2C(C3CC[C@H](C(C)CCC(=O)O)[C@]31C)[C@H](OC(C)=O)C[C@@H]1CC3(CC[C@]21C)OOC1(CCC(C)CC1)OO3` (some centres not stated), the GI50 is 7.66 µM and 1.81 µM in the assay on 786-0 renal; 12.5 µM and 2.73 µM in the assay with MALME-3M melanoma; 5.73 µM and 2.31 µM with KM12 colon; 8.43 µM and 2.73 µM with HCC-2998 colon. In addition, the TGI is 20.3 µM and 3.81 µM with 786-0 renal; 6.81 µM in the assay with SNB-75 CNS; 28.3 µM and 8.04 µM with MALME-3M melanoma; 28.6 µM and 29.8 µM with A498 renal; 27.9 µM and 23.9 µM with RXF 393 renal; 30.4 µM and 38.1 µM with MCF7 breast. Further, the TGI is 19.4 µM and 6.98 µM in the assay with KM12 colon; 21.3 µM and 6.48 µM in the assay with HCC-2998 colon; 11.8 µM and 13.2 µM in the assay on SK-MEL-28 melanoma.

`COc1cc(OC)c(OC)cc1/C=C/c1nc2ccccc2s1`: the TGI with 786-0 renal, in the assay on SNB-75 CNS, in the assay with MALME-3M melanoma, with A498 renal, in the assay with RXF 393 renal and in the assay on MCF7 breast was greater than 100 µM each time. Also, the TGI with KM12 colon, in the assay on HCC-2998 colon and in the assay on SK-MEL-28 melanoma was greater than 100 µM throughout.

For the compound `CC(C)Cc1ccc(C(C)/C=C2\CCC(CN(C)C)C2=O)cc1` (configuration not stated), the TGI was found to be 8.13 µM in the assay with 786-0 renal; 30.8 µM in the assay on SNB-75 CNS; 32.2 µM with MALME-3M melanoma; 39.5 µM in the assay on A498 renal; 35.1 µM with RXF 393 renal; 18 µM in the assay with MCF7 breast. For the same compound, the TGI in the assay with KM12 colon was 18.2 µM; in the assay on UACC-62 melanoma, 33.8 µM; in the assay on HCC-2998 colon, 31.3 µM; in the assay on SK-MEL-28 melanoma, 30.4 µM.

Regarding `CC(=O)NC1C(O[C@H]2C[C@H]3[C@@H]4CC=C5C[C@@H](O)CC[C@]5(C)[C@H]4CC[C@]3(C)[C@H]2[C@H](C)C(=O)CCC(C)C)OCC(O)C1O` (some centres not stated), the GI50 is 0.553 µM in the assay with 786-0 renal; 0.909 µM with SNB-75 CNS; 2.33 µM in the assay on MALME-3M melanoma; 0.977 µM in the assay on A498 renal; 0.398 µM with RXF 393 renal; 2.44 µM in the assay with MCF7 breast. Also, the GI50 was 6.27 µM in the assay on KM12 colon, 0.913 µM with UACC-62 melanoma, 6.46 µM with HCC-2998 colon and 0.928 µM with SK-MEL-28 melanoma. In addition, the TGI in the assay on 786-0 renal worked out at 2.21 µM; with SNB-75 CNS, 10.9 µM; in the assay with MALME-3M melanoma it was 9.78 µM; with A498 renal, 2.88 µM; with RXF 393 renal, 1.41 µM; in the assay on MCF7 breast, 10.4 µM. Further, the TGI with KM12 colon is greater than 42.5 µM; in the assay with UACC-62 melanoma it was 2.21 µM; with HCC-2998 colon, 14.6 µM; in the assay with SK-MEL-28 melanoma, 2.78 µM.

In the case of `O=C(O)CN(CCN(CC(=O)O)CC(=O)O)CC(=O)O.[Mn+2]`, the GI50 in the assay on 786-0 renal, in the assay with SNB-75 CNS, in the assay with MALME-3M melanoma, with A498 renal, in the assay on RXF 393 renal and in the assay with MCF7 breast was greater than 100 µM each time. Moreover, the GI50 in the assay with KM12 colon, with UACC-62 melanoma, in the assay on HCC-2998 colon and in the assay with SK-MEL-28 melanoma was greater than 100 µM throughout. Further, the TGI in the assay on 786-0 renal, with SNB-75 CNS, in the assay with MALME-3M melanoma, in the assay with A498 renal, in the assay with RXF 393 renal and with MCF7 breast was greater than 100 µM in each case. For the same compound, the TGI with KM12 colon, in the assay on UACC-62 melanoma, in the assay with HCC-2998 colon and in the assay on SK-MEL-28 melanoma was greater than 100 µM in each case.

`[O]=[V]([OH])([OH])[OH]`: the GI50 in the assay with 786-0 renal, in the assay with SNB-75 CNS, with MALME-3M melanoma, with A498 renal, with RXF 393 renal and in the assay with MCF7 breast was greater than 100 µM in each case. The GI50 in the assay on KM12 colon, with UACC-62 melanoma, in the assay on HCC-2998 colon and with SK-MEL-28 melanoma was greater than 100 µM in each case. Also, the TGI in the assay with 786-0 renal, in the assay on SNB-75 CNS, with MALME-3M melanoma, in the assay on A498 renal, in the assay with RXF 393 renal and with MCF7 breast was greater than 100 µM throughout. In addition, the TGI in the assay on KM12 colon, in the assay with UACC-62 melanoma, in the assay with HCC-2998 colon and in the assay with SK-MEL-28 melanoma was greater than 100 µM in each case.

With `Cc1cc(Cl)nc(N(CCNc2ccnc3cc(Cl)ccc23)Cc2ccco2)n1`, the GI50 with 786-0 renal was 1.65 µM; in the assay with SNB-75 CNS it was 1.57 µM; with MALME-3M melanoma, 1.96 µM; in the assay with A498 renal, 1.74 µM; with RXF 393 renal, 1.24 µM; with MCF7 breast it was 1.69 µM. For the same compound, the GI50 in the assay on KM12 colon was 2.01 µM; in the assay on UACC-62 melanoma it was 1.69 µM; with HCC-2998 colon it was 2.03 µM; in the assay with SK-MEL-28 melanoma, 1.74 µM. The TGI is 3.1 µM in the assay with 786-0 renal; 4.18 µM with SNB-75 CNS; 3.57 µM in the assay on MALME-3M melanoma; 5.51 µM with A498 renal; 2.89 µM with RXF 393 renal; 3.36 µM in the assay on MCF7 breast. The TGI with KM12 colon amounted to 4.67 µM; in the assay on UACC-62 melanoma, 3.27 µM; in the assay with HCC-2998 colon it was 4.22 µM; in the assay with SK-MEL-28 melanoma, 3.33 µM.
